We go through one molecule from paper PMC5716991, “The anthelmintic praziquantel is a human serotoninergic G-protein-coupled receptor ligand” (Nature Communications, 2017).

The target of the test is T1, 5-HT2B receptor (Homo sapiens, UniProt P41595).
T1 construct: gene HTR2B
As to the kind of experiment: [3H]-LSD radioligand displacement at […] (PDSP primary screen); partial agonist in Ca2+ flux. It is filed as binding. (In general: In a radioligand displacement assay an active substance lowers the binding of a labelled ligand.)

SMILES strings stand for the structures.

T1 sequence (P41595 whole entry): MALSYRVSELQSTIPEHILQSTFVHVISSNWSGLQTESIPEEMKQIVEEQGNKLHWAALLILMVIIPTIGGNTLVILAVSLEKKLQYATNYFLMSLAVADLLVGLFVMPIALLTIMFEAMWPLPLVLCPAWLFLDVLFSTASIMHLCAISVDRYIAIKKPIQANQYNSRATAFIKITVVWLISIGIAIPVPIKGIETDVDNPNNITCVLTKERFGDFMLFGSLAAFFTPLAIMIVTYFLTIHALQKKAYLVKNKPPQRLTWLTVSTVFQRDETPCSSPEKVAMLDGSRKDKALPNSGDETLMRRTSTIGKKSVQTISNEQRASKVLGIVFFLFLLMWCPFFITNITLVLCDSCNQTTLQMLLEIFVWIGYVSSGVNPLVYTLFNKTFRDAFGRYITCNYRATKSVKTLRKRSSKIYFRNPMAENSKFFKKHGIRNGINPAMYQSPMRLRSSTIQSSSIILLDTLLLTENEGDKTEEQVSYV

For the molecule `O=C(C1CCCCC1)N1CC(=O)N2CCc3ccccc3[C@@H]2C1` [(R)-PZQ], the “[3H]-LSD radioligand displacement at 5 μM (PDSP primary screen); partial agonist” value was “the human 5-HT2B receptor (5-HT2BR)—where inhibition seen with (±)-PZQ was attributable solely to (R)-PZQ”.
